From PubChem BioAssay AID2060894 (Molecular Pharmacology Branch, DTP, NCI, 2025)

Tested on: K12877-001-R-J1-PDC complex spheroid viability
Experiment: Anticancer human tumor K12877-001-R-J1-PDC patient-derived lung adenocarcinoma cell line growth inhibition [RAS]
Conditions: for viability, T/C: stronger effect = lower value; active = viability on the fitted dose curve at most 10% of control; inactive = the rest
Method in brief: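 Agents were tested in combination matrices in half-log decrements from a top concentration at or near clinical Cmax (10 microM if undetermined). Targets were multi-cell spheroids of tumour lines plus HUVEC and MSC stromal cells.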

[1] = curve of first compound, second compound 0.0316 µM
[2] = curve of first compound, second compound 0.1 µM
[3] = curve of first compound, second compound 0.316 µM
[4] = curve of first compound, second compound 1 µM
[5] = second compound 0.0316 µM, first compound 0.00316 µM
[6] = second compound 0.0316 µM, first compound 0.01 µM
[7] = second compound 0.0316 µM, first compound 0.0316 µM
[8] = second compound 0.0316 µM, first compound 0.1 µM
[9] = second compound 0.1 µM, first compound 0.00316 µM
[10] = second compound 0.1 µM, first compound 0.01 µM
[11] = second compound 0.1 µM, first compound 0.0316 µM
[12] = second compound 0.1 µM, first compound 0.1 µM
[13] = second compound 0.316 µM, first compound 0.00316 µM
[14] = second compound 0.316 µM, first compound 0.01 µM
[15] = second compound 0.316 µM, first compound 0.0316 µM
[16] = second compound 0.316 µM, first compound 0.1 µM
[17] = second compound 1 µM, first compound 0.00316 µM
[18] = second compound 1 µM, first compound 0.01 µM
[19] = second compound 1 µM, first compound 0.0316 µM
[20] = second compound 1 µM, first compound 0.1 µM
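Note: spheroids exposed to agents for one week before readout.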
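Throughout, for viability, T/C: tumour cells co-cultured with HUVEC and mesenchymal stem cells in spheroids.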

CCN1CCN(Cc2ccc(Nc3ncc(F)c(-c4cc(F)c5nc(C)n(C(C)C)c5c4)n3)nc2)CC1 + C=CC(=O)N1CCN(c2nc(OCC3CCCN3C)nc3c(F)c(-c4nc(N)cc(C)c4C(F)(F)F)c(Cl)cc23)C(C)C1
614 nM: IC50 [2]
696 nM: IC50 [4]
597 nM: IC50 [3]
691 nM: IC50 [1]
945 nM: IC50 (curve of first compound, second compound 0.00316 µM)
inactive: viability, T/C (second compound 0.00316 µM, first compound 0.00316 µM) 95.9% | viability, T/C (second compound 0.00316 µM, first compound 0.01 µM) 103% | viability, T/C (second compound 0.00316 µM, first compound 0.0316 µM) 97.2% | viability, T/C (second compound 0.00316 µM, first compound 0.1 µM) 91.3% | viability, T/C (second compound 0.00316 µM, first compound 0.316 µM) 83.5% | viability, T/C (second compound 0.00316 µM, first compound 1 µM) 47.8% | viability, T/C (second compound 0.01 µM, first compound 0.00316 µM) 88.3% | viability, T/C (second compound 0.01 µM, first compound 0.01 µM) 89.8% | viability, T/C (second compound 0.01 µM, first compound 0.0316 µM) 85.2% | viability, T/C (second compound 0.01 µM, first compound 0.1 µM) 95.4% | viability, T/C (second compound 0.01 µM, first compound 0.316 µM) 65.2% | viability, T/C (second compound 0.01 µM, first compound 1 µM) 33.2% | viability, T/C [5] 96.4% | viability, T/C [6] 90.4% | viability, T/C [7] 76.5% | viability, T/C [8] 76.7% | viability, T/C (second compound 0.0316 µM, first compound 0.316 µM) 75.8% | viability, T/C (second compound 0.0316 µM, first compound 1 µM) 39.2% | viability, T/C [9] 92.2% | viability, T/C [10] 84.5% | viability, T/C [11] 83.3% | viability, T/C [12] 72.4% | viability, T/C (second compound 0.1 µM, first compound 0.316 µM) 65.8% | viability, T/C (second compound 0.1 µM, first compound 1 µM) 39.6% | viability, T/C [13] 95.2% | viability, T/C [14] 86.5% | viability, T/C [15] 79.9% | viability, T/C [16] 77.9% | viability, T/C (second compound 0.316 µM, first compound 0.316 µM) 78.6% | viability, T/C (second compound 0.316 µM, first compound 1 µM) 30.1% | viability, T/C [17] 85% | viability, T/C [18] 77.2% | viability, T/C [19] 88.1% | viability, T/C [20] 81.1% | viability, T/C (second compound 1 µM, first compound 0.316 µM) 74.1% | viability, T/C (second compound 1 µM, first compound 1 µM) 38.9%
545 nM: IC50 (curve of first compound, second compound 0.01 µM)

C=CC(=O)N1CCN(c2nc(OCC3CCCN3C)nc3c(F)c(-c4nc(N)cc(C)c4C(F)(F)F)c(Cl)cc23)C(C)C1 (stereo not drawn) + CCn1c(-c2cccnc2C(C)OC)c2c3cc(ccc31)N1CCOC(CC(NC(=O)C(C(C)C)N(C)C(=O)C3(F)CCN(C(=O)C#CC(C)(C)N(C)C)CC3)C(=O)N3CCCC(N3)C(=O)OCC(C)(C)C2)C1
inactive: viability, T/C (second compound 0.000949 µM, first compound 0.00316 µM) 82% | viability, T/C (second compound 0.000949 µM, first compound 0.01 µM) 83% | viability, T/C (second compound 0.000949 µM, first compound 0.0316 µM) 83.5% | viability, T/C (second compound 0.000949 µM, first compound 0.1 µM) 74.2% | viability, T/C (second compound 0.000949 µM, first compound 0.316 µM) 76% | viability, T/C (second compound 0.000949 µM, first compound 1 µM) 77.8% | viability, T/C (second compound 0.003 µM, first compound 0.00316 µM) 78% | viability, T/C (second compound 0.003 µM, first compound 0.01 µM) 61.3% | viability, T/C (second compound 0.003 µM, first compound 0.0316 µM) 73.6% | viability, T/C (second compound 0.003 µM, first compound 0.1 µM) 81.1% | viability, T/C (second compound 0.003 µM, first compound 0.316 µM) 86% | viability, T/C (second compound 0.003 µM, first compound 1 µM) 71.1% | viability, T/C (second compound 0.00949 µM, first compound 0.00316 µM) 75.4% | viability, T/C (second compound 0.00949 µM, first compound 0.01 µM) 83.9% | viability, T/C (second compound 0.00949 µM, first compound 0.0316 µM) 77.5% | viability, T/C (second compound 0.00949 µM, first compound 0.1 µM) 85.3% | viability, T/C (second compound 0.00949 µM, first compound 0.316 µM) 85.5% | viability, T/C (second compound 0.00949 µM, first compound 1 µM) 78.6% | viability, T/C (second compound 0.03 µM, first compound 0.00316 µM) 77.4% | viability, T/C (second compound 0.03 µM, first compound 0.01 µM) 76.1% | viability, T/C (second compound 0.03 µM, first compound 0.0316 µM) 77.6% | viability, T/C (second compound 0.03 µM, first compound 0.1 µM) 75.9% | viability, T/C (second compound 0.03 µM, first compound 0.316 µM) 81.7% | viability, T/C (second compound 0.03 µM, first compound 1 µM) 73.3% | viability, T/C (second compound 0.0949 µM, first compound 0.00316 µM) 83.4% | viability, T/C (second compound 0.0949 µM, first compound 0.01 µM) 70.5% | viability, T/C (second compound 0.0949 µM, first compound 0.0316 µM) 79.7% | viability, T/C (second compound 0.0949 µM, first compound 0.1 µM) 76.1% | viability, T/C (second compound 0.0949 µM, first compound 0.316 µM) 73.8% | viability, T/C (second compound 0.0949 µM, first compound 1 µM) 72.8% | viability, T/C (second compound 0.3 µM, first compound 0.00316 µM) 58.1% | viability, T/C (second compound 0.3 µM, first compound 0.01 µM) 67% | viability, T/C (second compound 0.3 µM, first compound 0.0316 µM) 66.3% | viability, T/C (second compound 0.3 µM, first compound 0.1 µM) 68.5% | viability, T/C (second compound 0.3 µM, first compound 0.316 µM) 70% | viability, T/C (second compound 0.3 µM, first compound 1 µM) 66.8%
> 1000 nM: IC50 (curve of first compound, second compound 0.000949 µM) | IC50 (curve of first compound, second compound 0.003 µM) | IC50 (curve of first compound, second compound 0.00949 µM) | IC50 (curve of first compound, second compound 0.03 µM) | IC50 (curve of first compound, second compound 0.0949 µM) | IC50 (curve of first compound, second compound 0.3 µM)

CC(C)n1nc(-c2ccc3oc(N)nc3c2)c2c(N)ncnc21 + C#Cc1c(F)ccc2cc(O)cc(-c3ncc4c(N5CC6CCC(C5)N6)nc(OCC56CCCN5CC(F)C6)nc4c3F)c12
26.5 nM: IC50 [2]
25.6 nM: IC50 (curve of first compound, second compound 10 µM)
28 nM: IC50 [4]
27 nM: IC50 [3]
25.5 nM: IC50 (curve of first compound, second compound 3.16 µM)
inactive: viability, T/C (second compound 0.0316 µM, first compound 0.000316 µM) 105% | viability, T/C (second compound 0.0316 µM, first compound 0.001 µM) 88.2% | viability, T/C [5] 83% | viability, T/C [6] 93.9% | viability, T/C [7] 39.8% | viability, T/C [8] 24.5% | viability, T/C (second compound 0.1 µM, first compound 0.000316 µM) 99.2% | viability, T/C (second compound 0.1 µM, first compound 0.001 µM) 86.2% | viability, T/C [9] 82.4% | viability, T/C [10] 94.2% | viability, T/C [11] 42.7% | viability, T/C [12] 24% | viability, T/C (second compound 0.316 µM, first compound 0.000316 µM) 97% | viability, T/C (second compound 0.316 µM, first compound 0.001 µM) 102% | viability, T/C [13] 88.1% | viability, T/C [14] 98.8% | viability, T/C [15] 42.5% | viability, T/C [16] 23.2% | viability, T/C (second compound 1 µM, first compound 0.000316 µM) 101% | viability, T/C (second compound 1 µM, first compound 0.001 µM) 104% | viability, T/C [17] 91.7% | viability, T/C [18] 101% | viability, T/C [19] 44.1% | viability, T/C [20] 24% | viability, T/C (second compound 3.16 µM, first compound 0.000316 µM) 114% | viability, T/C (second compound 3.16 µM, first compound 0.001 µM) 93.3% | viability, T/C (second compound 3.16 µM, first compound 0.00316 µM) 91.7% | viability, T/C (second compound 3.16 µM, first compound 0.01 µM) 88.1% | viability, T/C (second compound 3.16 µM, first compound 0.0316 µM) 40.9% | viability, T/C (second compound 3.16 µM, first compound 0.1 µM) 24.1% | viability, T/C (second compound 10 µM, first compound 0.000316 µM) 101% | viability, T/C (second compound 10 µM, first compound 0.001 µM) 84.5% | viability, T/C (second compound 10 µM, first compound 0.00316 µM) 82.7% | viability, T/C (second compound 10 µM, first compound 0.01 µM) 79.5% | viability, T/C (second compound 10 µM, first compound 0.0316 µM) 42.6% | viability, T/C (second compound 10 µM, first compound 0.1 µM) 19.5%
25.3 nM: IC50 [1]

C#Cc1c(F)ccc2cc(O)cc(-c3ncc4c(N5CC6CCC(C5)N6)nc(OCC56CCCN5CC(F)C6)nc4c3F)c12 (stereo not drawn)
> 10000 nM: IC50 (compound alone, run of 09/09/2024)
inactive: viability, T/C (compound 0.0316 µM) 105% [middle of 8 runs] | viability, T/C (compound 0.1 µM) 107% [middle of 8 runs] | viability, T/C (compound 0.316 µM) 110% [middle of 8 runs] | viability, T/C (compound 1 µM) 110% [middle of 8 runs] | viability, T/C (compound 3.16 µM) 101% [middle of 8 runs] | viability, T/C (compound 10 µM) 96.5% [middle of 8 runs]
